{"source": "paper PMC7413254", "about": "(Nature Communications, 2020)", "key": {"PfCRT^3D7 [1]": {"target": "T1, PfCRT^3D7 (Plasmodium falciparum, UniProt Q8IBZ9)", "T1 sequence (Q8IBZ9 59-398)": "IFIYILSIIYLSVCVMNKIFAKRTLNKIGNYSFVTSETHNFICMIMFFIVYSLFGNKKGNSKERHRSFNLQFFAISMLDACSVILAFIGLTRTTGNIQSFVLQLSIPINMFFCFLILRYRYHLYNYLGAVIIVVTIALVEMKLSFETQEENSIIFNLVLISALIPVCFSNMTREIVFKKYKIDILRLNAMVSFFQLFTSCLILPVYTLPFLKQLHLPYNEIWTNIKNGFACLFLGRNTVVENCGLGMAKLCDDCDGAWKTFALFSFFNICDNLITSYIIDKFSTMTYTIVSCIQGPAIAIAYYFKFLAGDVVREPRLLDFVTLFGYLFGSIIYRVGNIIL", "assay": "cell-based", "type": "cell-based", "conditions": "total [3H]CQ transport; [test solute] = 2 mM; mean ± SEM; SEM", "summary_of_the_method": "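Inward transport into oocyte cytosol from pH 5.5 medium models PfCRT efflux from the acidic digestive vacuole. Incubation 1.5 h, 27.5 °C; termination by ice-cold washes; lysate radioactivity counted.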"}, "PfCRT": {"test_system": "PfCRT", "assay": "Influx of VF-6 via PfCRT into the oocyte, solutes tested as potential co-substrates", "type": "cell-based, Plasmodium falciparum", "set-up": "key: X: Compounds that have been tested as potential co-substrates but are not required for influx of VF-6 via PfCRT into the oocyte", "conditions": "X marks the solute"}, "non-expressing oocytes": {"test_system": "non-expressing oocytes", "type": "cell-based, Xenopus laevis", "conditions": "total [3H]CQ transport; for Uptake of [3H]CQ (% non-expressing oocyte control), trans-stimulation: non-expressing oocytes, normalised to the oocyte type control; for Uptake of [3H]CQ (% PfCRTDd2 control), trans-stimulation, non-expressing oocytes: mean ± SEM, SEM", "summary_of_the_method": "(§1)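 Oocytes (ten per treatment, ≥4 independent frogs/days) were preloaded by injecting VF-6 in 25 nL ND96 at pH 5.0, 5.5, 6.0 or 7.0, or Na^+-free choline buffer, then uptake run 1.5 h, 27.5 °C, ND96 pH 5.5 by default. Internal concentrations assumed ~400 nL oocyte volume.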"}, "PfCRT^Dd2": {"target": "PfCRT^Dd2 (Plasmodium falciparum, UniProt Q9N623, A220S/I356T/K76T/M74I/N326S/N75E/Q271E/R371I)", "sequence (Q9N623 whole entry A220S/I356T/K76T/M74I/N326S/N75E/Q271E/R371I)": "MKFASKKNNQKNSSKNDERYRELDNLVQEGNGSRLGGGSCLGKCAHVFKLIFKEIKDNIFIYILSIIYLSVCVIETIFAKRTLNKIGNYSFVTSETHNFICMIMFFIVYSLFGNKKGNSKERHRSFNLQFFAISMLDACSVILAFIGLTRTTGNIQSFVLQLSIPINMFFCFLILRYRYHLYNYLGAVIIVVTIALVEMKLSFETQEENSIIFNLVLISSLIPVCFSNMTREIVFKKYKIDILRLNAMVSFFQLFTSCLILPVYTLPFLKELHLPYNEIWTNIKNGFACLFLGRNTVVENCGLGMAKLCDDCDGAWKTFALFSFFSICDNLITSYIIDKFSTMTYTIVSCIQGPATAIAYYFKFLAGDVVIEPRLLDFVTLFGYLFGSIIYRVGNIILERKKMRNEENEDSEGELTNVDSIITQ", "assay": "cell-based", "type": "cell-based", "conditions": "for Uptake of [3H]CQ (% PfCRTDd2 control), trans-stimulation / PfCRT-mediated [3H]CQ transport, trans-stimulation (% PfCRTDd2 control): PfCRTDd2 oocytes; for Uptake of [3H]CQ (% PfCRTDd2 control), trans-stimulation / Uptake of [3H]CQ (% PfCRTDd2 control), trans-stimulation, PfCRTDd2: total [3H]CQ transport; for Uptake of [3H]CQ (% PfCRTDd2 control), trans-stimulation: normalised to the oocyte type control; for PfCRT-mediated [3H]CQ transport, trans-stimulation (% PfCRTDd2 control): normalised to oocyte type control; for Uptake of [3H]CQ (% PfCRTDd2 control), trans-stimulation, PfCRTDd2 / [3H]CQ transport (% PfCRTDd2 control), trans-stimulation, PfCRTDd2: mean ± SEM, SEM; for [3H]CQ transport (% PfCRTDd2 control), trans-stimulation, PfCRTDd2: PfCRT-mediated component (background subtracted)", "summary_of_the_method": "as §1"}, "PfCRT^Ecu1110": {"target": "PfCRT^Ecu1110 (Plasmodium falciparum, UniProt Q9N623, A220S/I356L/K76T/N326D)", "sequence (Q9N623 whole entry A220S/I356L/K76T/N326D)": "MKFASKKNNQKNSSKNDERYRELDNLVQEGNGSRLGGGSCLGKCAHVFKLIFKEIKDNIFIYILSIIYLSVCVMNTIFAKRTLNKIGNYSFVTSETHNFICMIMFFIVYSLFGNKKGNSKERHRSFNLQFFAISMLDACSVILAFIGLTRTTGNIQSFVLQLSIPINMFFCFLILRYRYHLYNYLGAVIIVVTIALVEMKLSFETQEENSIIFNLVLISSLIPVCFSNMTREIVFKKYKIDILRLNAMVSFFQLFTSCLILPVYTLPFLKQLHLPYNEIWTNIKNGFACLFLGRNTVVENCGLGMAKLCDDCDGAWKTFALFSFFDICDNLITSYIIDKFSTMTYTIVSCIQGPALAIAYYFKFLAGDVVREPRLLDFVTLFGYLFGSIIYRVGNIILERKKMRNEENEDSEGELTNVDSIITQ", "assay": "cell-based", "type": "cell-based", "conditions": "for Uptake of [3H]CQ (% PfCRTEcu1110 control), trans-stimulation / PfCRT-mediated [3H]CQ transport, trans-stimulation (% PfCRTEcu1110 control): PfCRTEcu1110 oocytes; for Uptake of [3H]CQ (% PfCRTEcu1110 control), trans-stimulation / Uptake of [3H]CQ (% PfCRTDd2 control), trans-stimulation, PfCRTEcu1110: total [3H]CQ transport; for Uptake of [3H]CQ (% PfCRTEcu1110 control), trans-stimulation: normalised to the oocyte type control; for PfCRT-mediated [3H]CQ transport, trans-stimulation (% PfCRTEcu1110 control): normalised to oocyte type control; for Uptake of [3H]CQ (% PfCRTDd2 control), trans-stimulation, PfCRTEcu1110 / [3H]CQ transport (% PfCRTDd2 control), trans-stimulation, PfCRTEcu1110: mean ± SEM, SEM; for [3H]CQ transport (% PfCRTDd2 control), trans-stimulation, PfCRTEcu1110: PfCRT-mediated component (background subtracted), sheet title says normalised to PfCRTDd2 control", "summary_of_the_method": "as §1"}, "PfNT1": {"target": "T2, PfNT1 (Plasmodium falciparum, UniProt Q8IDM6)", "T2 construct": "expressed in transfected cells; host or cells: Xenopus laevis oocytes (stage V-VI), cRNA-injected", "T2 sequence (Q8IDM6 whole entry)": "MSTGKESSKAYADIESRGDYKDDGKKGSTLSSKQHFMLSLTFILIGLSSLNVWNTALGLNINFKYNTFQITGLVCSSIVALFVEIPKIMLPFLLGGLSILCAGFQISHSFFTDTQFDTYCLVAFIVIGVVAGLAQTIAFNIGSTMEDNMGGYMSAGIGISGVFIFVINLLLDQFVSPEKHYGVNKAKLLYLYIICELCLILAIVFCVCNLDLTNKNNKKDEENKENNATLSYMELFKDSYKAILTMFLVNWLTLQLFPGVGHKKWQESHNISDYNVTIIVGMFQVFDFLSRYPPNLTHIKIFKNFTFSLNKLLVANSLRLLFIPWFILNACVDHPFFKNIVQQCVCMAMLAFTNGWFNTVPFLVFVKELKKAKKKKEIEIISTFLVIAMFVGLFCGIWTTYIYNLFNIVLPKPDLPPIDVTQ", "assay": "cell-based", "type": "cell-based", "conditions": "total [3H]CQ transport; for Uptake of [3H]CQ (% PfNT1 control), trans-stimulation: PfNT1 oocytes, normalised to the oocyte type control; for Uptake of [3H]CQ (% PfCRTDd2 control), trans-stimulation, PfNT1: mean ± SEM, SEM", "summary_of_the_method": "as §1"}, "PfCRT^3D7 [2]": {"target": "T1, PfCRT^3D7", "assay": "cell-based", "type": "cell-based", "conditions": "for Uptake of [3H]CQ (% PfCRT3D7 control), trans-stimulation / PfCRT-mediated [3H]CQ transport, trans-stimulation (% PfCRT3D7 control): PfCRT3D7 oocytes; for Uptake of [3H]CQ (% PfCRT3D7 control), trans-stimulation / Uptake of [3H]CQ (% PfCRTDd2 control), trans-stimulation, PfCRT3D7: total [3H]CQ transport; for Uptake of [3H]CQ (% PfCRT3D7 control), trans-stimulation: normalised to the oocyte type control; for PfCRT-mediated [3H]CQ transport, trans-stimulation (% PfCRT3D7 control): normalised to oocyte type control; for Uptake of [3H]CQ (% PfCRTDd2 control), trans-stimulation, PfCRT3D7: mean ± SEM, SEM", "summary_of_the_method": "as §1"}, "[3]": {"conditions": "[test solute]i = 45 mM (30 mM for some solutes due to solubility)"}, "[4]": {"conditions": "[test solute]i = 5 mM (intracellular)"}, "[5]": {"conditions": "[test solute]i = 45 mM (intracellular; 30 mM for some solutes due to solubility)"}, "[6]": {"conditions": "[test solute]i = 5 mM (injected)"}}, "note": "Like-named read-outs stand apart in the source and are kept apart here.", "data": [{"compound": "NC(=O)C[C@H](N)C(=O)O", "note": "[L-asparagine]", "values": [{"measurement": "Uptake of [3H]CQ (% PfCRTDd2 control), cis-inhibition, PfCRT3D7", "setting": "PfCRT^3D7 [1]", "result": "3.4 ± 0.07", "unit": "% PfCRTDd2 control"}, {"measurement": "Compounds that have been tested as potential co-substrates but are not required for influx of VF-6 via PfCRT into the oocyte", "setting": "PfCRT", "result": "X"}, {"measurement": "Uptake of [3H]CQ (% non-expressing oocyte control), trans-stimulation", "setting": "non-expressing oocytes; [test solute]i = 5 mM", "result": "100 ± 3.7 % non-expressing oocyte control"}, {"measurement": "Uptake of [3H]CQ (% non-expressing oocyte control), trans-stimulation", "setting": "non-expressing oocytes; [3]", "result": "99 ± 3.0 % non-expressing oocyte control"}, {"measurement": "Uptake of [3H]CQ (% PfCRTDd2 control), trans-stimulation, non-expressing oocytes", "setting": "non-expressing oocytes; [4]", "result": "3.2 ± 0.02", "unit": "% PfCRTDd2 control"}, {"measurement": "Uptake of [3H]CQ (% PfCRTDd2 control), trans-stimulation, non-expressing oocytes", "setting": "non-expressing oocytes; [5]", "result": "2.4 ± 0.02", "unit": "% PfCRTDd2 control"}, {"measurement": "Uptake of [3H]CQ (% PfCRTDd2 control), trans-stimulation", "setting": "PfCRT^Dd2; [test solute]i = 5 mM", "result": "101 ± 3.1", "unit": "% PfCRTDd2 control"}, {"measurement": "Uptake of [3H]CQ (% PfCRTDd2 control), trans-stimulation", "setting": "PfCRT^Dd2; [3]", "result": "98 ± 2.4", "unit": "% PfCRTDd2 control"}, {"measurement": "PfCRT-mediated [3H]CQ transport, trans-stimulation (% PfCRTDd2 control)", "setting": "PfCRT^Dd2; [4]", "result": "99 ± 2.4", "unit": "% PfCRTDd2 control"}, {"measurement": "PfCRT-mediated [3H]CQ transport, trans-stimulation (% PfCRTDd2 control)", "setting": "PfCRT^Dd2; [5]", "result": "96 ± 3.2", "unit": "% PfCRTDd2 control"}, {"measurement": "Uptake of [3H]CQ (% PfCRTDd2 control), trans-stimulation, PfCRTDd2", "setting": "PfCRT^Dd2; [4]", "result": "101 ± 3.1", "unit": "% PfCRTDd2 control"}, {"measurement": "Uptake of [3H]CQ (% PfCRTDd2 control), trans-stimulation, PfCRTDd2", "setting": "PfCRT^Dd2; [5]", "result": "98 ± 2.4", "unit": "% PfCRTDd2 control"}, {"measurement": "[3H]CQ transport (% PfCRTDd2 control), trans-stimulation, PfCRTDd2", "setting": "PfCRT^Dd2; [6]", "result": "99 ± 2.4", "unit": "% PfCRTDd2 control"}, {"measurement": "[3H]CQ transport (% PfCRTDd2 control), trans-stimulation, PfCRTDd2", "setting": "PfCRT^Dd2; [3]", "result": "96 ± 3.2", "unit": "% PfCRTDd2 control"}, {"measurement": "Uptake of [3H]CQ (% PfCRTEcu1110 control), trans-stimulation", "setting": "PfCRT^Ecu1110; [test solute]i = 5 mM", "result": "98 ± 4.1", "unit": "% PfCRTEcu1110 control"}, {"measurement": "Uptake of [3H]CQ (% PfCRTEcu1110 control), trans-stimulation", "setting": "PfCRT^Ecu1110; [3]", "result": "98 ± 3.2", "unit": "% PfCRTEcu1110 control"}, {"measurement": "PfCRT-mediated [3H]CQ transport, trans-stimulation (% PfCRTEcu1110 control)", "setting": "PfCRT^Ecu1110; [4]", "result": "96 ± 2.1", "unit": "% PfCRTEcu1110 control"}, {"measurement": "PfCRT-mediated [3H]CQ transport, trans-stimulation (% PfCRTEcu1110 control)", "setting": "PfCRT^Ecu1110; [5]", "result": "96 ± 2.7", "unit": "% PfCRTEcu1110 control"}, {"measurement": "Uptake of [3H]CQ (% PfCRTDd2 control), trans-stimulation, PfCRTEcu1110", "setting": "PfCRT^Ecu1110; [4]", "result": "35 ± 1.8", "unit": "% PfCRTDd2 control"}, {"measurement": "Uptake of [3H]CQ (% PfCRTDd2 control), trans-stimulation, PfCRTEcu1110", "setting": "PfCRT^Ecu1110; [5]", "result": "35 ± 2.1", "unit": "% PfCRTDd2 control"}, {"measurement": "[3H]CQ transport (% PfCRTDd2 control), trans-stimulation, PfCRTEcu1110", "setting": "PfCRT^Ecu1110; [6]", "result": "32 ± 1.6", "unit": "% PfCRTEcu1110 control"}, {"measurement": "[3H]CQ transport (% PfCRTDd2 control), trans-stimulation, PfCRTEcu1110", "setting": "PfCRT^Ecu1110; [3]", "result": "32 ± 2.1", "unit": "% PfCRTEcu1110 control"}, {"measurement": "Uptake of [3H]CQ (% PfNT1 control), trans-stimulation", "setting": "PfNT1; [test solute]i = 5 mM", "result": "100 ± 2.5", "unit": "% PfNT1 control"}, {"measurement": "Uptake of [3H]CQ (% PfNT1 control), trans-stimulation", "setting": "PfNT1; [3]", "result": "99 ± 3.6", "unit": "% PfNT1 control"}, {"measurement": "Uptake of [3H]CQ (% PfCRTDd2 control), trans-stimulation, PfNT1", "setting": "PfNT1; [4]", "result": "2.8 ± 0.04", "unit": "% PfCRTDd2 control"}, {"measurement": "Uptake of [3H]CQ (% PfCRTDd2 control), trans-stimulation, PfNT1", "setting": "PfNT1; [5]", "result": "3.1 ± 0.06", "unit": "% PfCRTDd2 control"}, {"measurement": "Uptake of [3H]CQ (% PfCRT3D7 control), trans-stimulation", "setting": "PfCRT^3D7 [2]; [test solute]i = 5 mM", "result": "100 ± 4.2", "unit": "% PfCRT3D7 control"}, {"measurement": "Uptake of [3H]CQ (% PfCRT3D7 control), trans-stimulation", "setting": "PfCRT^3D7 [2]; [3]", "result": "100 ± 3.7", "unit": "% PfCRT3D7 control"}, {"measurement": "PfCRT-mediated [3H]CQ transport, trans-stimulation (% PfCRT3D7 control)", "setting": "PfCRT^3D7 [2]; [4]", "result": "98 ± 3.6", "unit": "% PfCRT3D7 control"}, {"measurement": "PfCRT-mediated [3H]CQ transport, trans-stimulation (% PfCRT3D7 control)", "setting": "PfCRT^3D7 [2]; [5]", "result": "98 ± 2.8", "unit": "% PfCRT3D7 control"}, {"measurement": "Uptake of [3H]CQ (% PfCRTDd2 control), trans-stimulation, PfCRT3D7", "setting": "PfCRT^3D7 [2]; [4]", "result": "3.3 ± 0.01", "unit": "% PfCRTDd2 control"}, {"measurement": "Uptake of [3H]CQ (% PfCRTDd2 control), trans-stimulation, PfCRT3D7", "setting": "PfCRT^3D7 [2]; [5]", "result": "3.3 ± 0.04", "unit": "% PfCRTDd2 control"}]}]}
